Laboratory results taken from patent US6552061B1, “Amino acid derivatives and anti-inflammatory agents” (Ajinomoto Co., Inc., priority 1998, dated 2003).

Columns and labels:
Format in all cases: cell-based
[1] = system: IL-1α; assay: Test for an Activity of Inhibiting IL-1α Expression (ELISA, UVB-irradiated human epidermal cells); settings: light or radiation study, 24 h, read-out: inhibitory rate (%) of IL-1α expression; for inhibition at 10 µM: concentration 10 μM; for inhibition at 100 µM: concentration 100 μM; for inhibition at 50 µM: concentration 50 μM
Procedure: Test for an Activity of Inhibiting IL-1α Expression
(§1) The test compound was added to human epidermal cells which had become confluent in a culture plate. Eighteen hours later, the culture solution was replaced with a phenol red-free medium. The cells were subjected to UV irradiation (UVB: 50 mJ/cm^2) using Dermaray M-DMR-80 (supplied by Toshiba Iryo Yohin KK). After 24 hours passed, the culture solution was recovered, and the IL-1α concentration in the culture solution was measured using IL-1α·ELISA System (supplied by Amersham Corp.). The rate of inhibition of IL-1α expression on the test compound was calculated using formula (V).
Rate (%) of inhibition of IL-1α expression={1−(B1−B3)/(B2−B3)}×100 (V)
B1: IL-1α concentration in the addition of the test compound
B2: IL-1α concentration in the non-addition of the test compound
B3: IL-1α concentration when the test compound was not added, nor was UV irradiation conducted

[2] = system: collagenase; assay: Test for an Activity of Inhibiting Collagenase Expression (MMP-1 ELISA, UVA-irradiated human dermal fibroblasts); settings: Fibroblast, light or radiation study, 24 h, read-out: inhibitory rate (%) of collagenase expression; for inhibition at 1 µM: concentration 1 μM; for inhibition at 100 µM: concentration 0.1 mM; for inhibition at 1000 µM: concentration 1 mM; for inhibition at 10 µM: concentration 10 μM; for inhibition at 500 µM: concentration 0.5 mM
Procedure: Test for an Activity of Inhibiting Collagenase Expression
as §1, with “dermal fibroblasts” for “epidermal cells”, “(UVA; 20 J/cm^2)” for “(UVB: 50 mJ/cm^2)”, “collagenase” for “IL-1α”, “MMP-1α·ELISA” for “IL-1α·ELISA”, “(VI).” for “(V).”
Rate (%) of inhibition of collagenase expression={1−(B4−B6)/(B5−B6)}×100 (VI)
B4: collagenase concentration in the addition of the test compound
B5: collagenase concentration in the non-addition of the test compound
B6: collagenase concentration when the test compound was not added, nor was UV irradiation conducted

[3] = system: NF-κB; assay: Test for an Activity of Inhibiting NF-κB Activation (gel shift assay, UVB-irradiated human epidermal cells); settings: light or radiation study, read-out: inhibitory rate (%) of NF-κB activation; for inhibition at 10 µM: concentration 10 μM; for inhibition at 1000 µM: concentration 1 mM; for inhibition at 2000 µM: concentration 2 mM; for inhibition at 50 µM: concentration 50 μM; for inhibition at 100 µM: concentration 100 μM
Procedure: Test for an Activity of Inhibiting NF-κB Activation
(§2) Eighteen hours later, the culture solution was replaced with a phenol red-free medium. The cells were subjected to UV irradiation (UVB: 50 mJ/m^2)using Dermaray M-DMR-80 (supplied by Toshiba Iryo Yohin KK). After from 4 to 5 hours passed, the cells were recovered, and the nucleoproteins were extracted in a usual manner. With respect to the resulting nucleoproteins, NF-κB activated by gel shift assay was detected. The amount of NF-κB was determined by measuring a radioactivity of an NF-κB band using a bio-imaging analyzer BAS 2000 (supplied by Fuji Photo Film). The rate of inhibition of NF-κB activation on the test compound was calculated using formula (III).
Rate (%) of inhibition of NF-κB activation={1−(A1−A3)/(A2−A3)}×100 (III)
A1: radioactivity of an NF-κB band in the addition of the test compound
A2: radioactivity of an NF-κB band in the non-addition of the test compound
A3: radioactivity of an NF-κB band when the test compound was not added, nor was UV irradiation conducted

[4] = system: AP-1; assay: Test for an Activity of Inhibiting AP-1 Activation (gel shift assay, UVA-irradiated human dermal fibroblasts); settings: AP1, light or radiation study, read-out: inhibitory rate (%) of AP-1 activation; for inhibition at 1 µM: concentration 1 μM; for inhibition at 5 µM: concentration 5 μM; for inhibition at 500 µM: concentration 0.5 mM; for inhibition at 1000 µM: concentration 1 mM; for inhibition at 10 µM: concentration 10 μM; for inhibition at 20 µM: concentration 20 μM
Procedure: Test for an Activity of Inhibiting AP-1 Activation
as §2, with “The test compound was added to human dermal fibroblasts which had become confluent in a culture plate. Eighteen” for “Eighteen”, “(UVA: 20 J/cm^2) using” for “(UVB: 50 mJ/m^2)using”, “AP-1” for “NF-κB”, “(IV).” for “(III).”
Rate (%) of inhibition of AP-1 activation={1−(A4−A6)/(A5−A6)}×100 (IV)
A4: radioactivity of an AP-1 band in the addition of the test compound
A5: radioactivity of an AP-1 band in the non-addition of the test compound
A6: radioactivity of an AP-1 band when the test compound was not added, nor was UV irradiation conducted

CCCCCCCCCCCCCCCCCCOC(=O)[C@H](C)NCc1ccccc1O [N-(2-hydroxybenzyl)-L-alanine stearyl ester]
inhibition at 1 µM ([1]; concentration 1 μM): 25% | inhibition at 10 µM [1]: 25% | inhibition at 1 µM [2]: 57% | inhibition at 10 µM [3]: 31% | inhibition at 1 µM [4]: 20% | inhibition at 5 µM [4]: 48%

CCCCCCCCCCCCCCCCCCNC(=O)[C@H](C)NCc1ccccc1O [N-(2-hydroxybenzyl)-L-alanine stearyl amide]
inhibition at 5 µM ([1]; concentration 5 μM): 30% | inhibition at 10 µM [1]: 77% | inhibition at 1 µM [2]: 72% | inhibition at 1 µM [4]: 72% | inhibition at 5 µM [4]: 47%

CCOC(=O)[C@H](Cc1c[nH]cn1)NCc1ccccc1O [N-(2-hydroxybenzyl)-L-histidine ethyl ester]
inhibition at 100 µM [2]: 44% | inhibition at 1000 µM [2]: 51% | inhibition at 1000 µM [3]: 69% | inhibition at 2000 µM [3]: 72% | inhibition at 500 µM [4]: 20% | inhibition at 1000 µM [4]: 38%

C[C@@H]1C[C@H]2[C@@H]3CCC4=CC(=O)C=C[C@]4(C)[C@@]3(F)[C@@H](O)C[C@]2(C)[C@@]1(O)C(=O)CO [dexamethasone, reference compound]
inhibition at 10 µM [1]: 48% | inhibition at 100 µM [1]: 65% | inhibition at 1 µM [2]: 27% | inhibition at 10 µM [2]: 53% | inhibition at 1 µM [4]: 39% | inhibition at 10 µM [4]: 34%

CCCCCCCCCCCCNC(=O)[C@@H]1CCC(=O)N1Cc1ccccc1O [N-(2-hydroxybenzyl)-L-pyroglutamic acid lauryl amide]
inhibition at 10 µM [1]: 25% | inhibition at 50 µM [1]: 28% | inhibition at 10 µM [2]: 23% | inhibition at 50 µM ([2]; concentration 50 μM): 52% | inhibition at 50 µM [3]: 75% | inhibition at 100 µM [3]: 74% | inhibition at 100 µM ([4]; concentration 100 μM): 42%

CC(=O)Oc1ccccc1C(=O)O [aspirin, reference compound]
inhibition at 1000 µM [2]: -197% | inhibition at 1000 µM [4]: -4% | inhibition at 5000 µM ([4]; concentration 5 mM): 14%

CCCCCCCCCCCCNC(=O)[C@H](Cc1ccc(O)cc1)NCc1ccccc1O [N-(2-hydroxybenzyl)-L-tyrosine lauryl amide]
inhibition at 10 µM [1]: 56% | inhibition at 1 µM [2]: 42% | inhibition at 10 µM [2]: 84% | inhibition at 10 µM [3]: 39% | inhibition at 10 µM [4]: 40% | inhibition at 20 µM [4]: 55%

CCCCCCCCCCCCNC(=O)[C@H](C)NCc1ccccc1O [N-(2-hydroxybenzyl)-L-alanine lauryl amide]
inhibition at 10 µM [1]: 69% | inhibition at 50 µM [1]: 73% | inhibition at 1 µM [2]: 57% | inhibition at 10 µM [3]: 53% | inhibition at 20 µM ([3]; concentration 20 μM): 65% | inhibition at 10 µM [4]: 57% | inhibition at 20 µM [4]: 56%

CCNC(=O)[C@H](Cc1ccccc1)NCc1ccccc1O [N-(2-hydroxybenzyl)-L-phenylalanine ethyl amide]
inhibition at 100 µM [2]: 32% | inhibition at 500 µM [2]: 27% | inhibition at 500 µM ([3]; concentration 0.5 mM): 102% | inhibition at 1000 µM [3]: 47% | inhibition at 500 µM [4]: 34% | inhibition at 1000 µM [4]: 61%

CCCCCCCCCCCCOC(=O)[C@H](C)NCc1ccccc1O [N-(2-hydroxybenzyl)-L-alanine lauryl ester]
inhibition at 10 µM [1]: 23% | inhibition at 100 µM [1]: 72% | inhibition at 10 µM [2]: 58% | inhibition at 10 µM [3]: 20% | inhibition at 100 µM [3]: 81% | inhibition at 10000 µM ([4]; concentration 10 mM): 68%

CCCCCCCCCCCCNC(=O)[C@H](CC(C)C)NCc1ccccc1O [N-(2-hydroxybenzyl)-L-leucine lauryl amide]
inhibition at 20 µM ([1]; concentration 20 μM): 27% | inhibition at 50 µM [1]: 79% | inhibition at 1 µM [2]: 37% | inhibition at 10 µM [2]: 60% | inhibition at 10 µM [3]: 40% | inhibition at 50 µM [3]: 89%

CCOC(=O)[C@H](CO)NCc1ccccc1O [N-(2-hydroxybenzyl)-L-serine ethyl ester]
inhibition at 2000 µM ([1]; concentration 2 mM): 44% | inhibition at 500 µM [2]: 30% | inhibition at 1000 µM [3]: 37% | inhibition at 2000 µM [3]: 56% | inhibition at 1000 µM [4]: 73%

CCCCCCCCCCCCOC(=O)[C@H](Cc1ccc(O)cc1)NCc1ccccc1O [N-(2-hydroxybenzyl)-L-tyrosine lauryl ester]
inhibition at 10 µM [2]: 61% | inhibition at 5 µM ([3]; concentration 5 μM): 20% | inhibition at 10 µM [3]: 43% | inhibition at 1 µM [4]: 19% | inhibition at 10 µM [4]: 45%

CCCCCCCCCCCCOC(=O)[C@H](CCC(=O)O)NCc1ccccc1O [N-(2-hydroxybenzyl)-L-glutamic acid lauryl ester]
inhibition at 10 µM [1]: 54% | inhibition at 1 µM [2]: 53% | inhibition at 10 µM [2]: 49% | inhibition at 100 µM [3]: 45% | inhibition at 10 µM [4]: 33%
